Reference: patent publication US6204262A, “1,3-Benzodiazepin-2-ones and 1,3-Benzoxazepin-2-ones useful as HIV reverse transcriptase inhibitors” (DuPont Pharmaceuticals Company, priority 1999, dated 2001)
≈ marks a conversion by molar mass, not a printed value.

Tested on: HIV-1 (RF)
Assay: Microplate based compound evaluation in HIV-1 infected MT-2 cells (HIV RNA assay)
Type: cell-based
Conditions: Human immunodeficiency virus 1, MT2, 72 h; HIV-1 (RF) infected MT-2 cells, 3 days at 37° C.; virus inoculum standardized on ddC; read-out: IC90 value (concentration of compound required to reduce the HIV RNA level by 90%)
Experimental: Plasmid pDAB 72 containing both gag and pol sequences of BH10 (bp 113-1816) cloned into PTZ 19R was prepared according to Erickson-Viitanen et al. AIDS Research and Human Retroviruses 1989, 5, 577. The plasmid was linearized with Bam HI prior to the generation of in vitro RNA transcripts using the Riboprobe Gemini system II kit (Promega) with T7 RNA polymerase. Synthesized RNA was purified by treatment with RNase free DNAse (Promega), phenol-chloroform extraction, and ethanol precipitation. RNA transcripts were dissolved in water, and stored at -70° C. The concentration of RNA was determined from the A260.
Biotinylated capture probes were purified by HPLC after synthesis on an Applied Biosystems (Foster City, Calif.) DNA synthesizer by addition of biotin to the 5' terminal end of the oligonucleotide, using the biotin-phosphoramidite reagent of Cocuzza, Tet. Lett. 1989, 30, 6287. […]
MT-2 and MT-4 cells were maintained in RPMI 1640 supplemented with 5% fetal calf serum (FCS) for MT-2 cells or 10% FCS for MT-4 cells, 2 mM L-glutamine and 50 μg/mL gentamycin, all from Gibco. […] Infectious titers of HIV-1(RF) stocks were 1-3×10^7 PFU (plaque forming units)/mL as measured by plaque assay on MT-2 cells (see below). […]

- IC90: 0.2 µg/mL (≈ 0.947 µM)
SMILES: Nc1ccn([C@H]2CC[C@@H](CO)O2)c(=O)n1 [ddC, 2',3'-dideoxycytidine]
